Data on two compounds can be found in patent US8765946B2, “Methods of preparing and using quinazoline and quinoline derivatives” (priority 2006, dated 2014).

Structures are written as SMILES.

What all share (assay type): cell-based
One assay deals with A431 cells. Nature of the assay: Cell growth inhibition assay (MTS assay), A431. The conditions noted are these: Homo sapiens, A-431; A431 cells; MTS, 48 hours; read-out: Growth inhibition activity EC50.
The target of assay [1] is T1, A431 cells EGFR-TK phosphorylation stimulated by EGF (Homo sapiens, UniProt P00533).
T1 construct: against A431 cells EGFR-TK; endogenous in cells; host or cells: A431 cells
The assay is described as follows: Irreversible inhibition of cellular EGFR-TK (A431 cells, inhibition and recovery). The conditions noted are these: for Inhibition percent(%): A431 cells, 2 hours with compound, supplemented twice by compound-free medium, then EGF; for Activity (irreversible or reversible inhibitor): A431 cellular model test. The method, then: Irreversible Inhibition of Cellular Epidermal Growth Factor Receptor Tyrosine Kinase (EGFR-TK)
1) A431 cells were cultured in a medium prepared by adding 10% FCS into another medium comprising 50% DMEM and 50% F12.
2) The A431 cells grown in six-well plates were cultured in a serum-free medium for 24 hours, during the period the medium was replenished once after 12 hours.
3) A solution containing a compound to be assessed was added to the A431 cells and cultured for 2 hours, supplemented twice by a medium free of the compound, and then EGF (100 ng/well) was added, and cultured for 5 minutes.
4) A431 cell homogenate was prepared by Laemili buffer which comprised 2% sodium dodecyl sulfonate (SDS), 5% 2-mercaptoethanol, 10% glycerol and 5 mM Tris; the pH value is 6.8.
5) The A431 cell homogenate was heated for 5 minutes at 100° C.
6) Proteins in the A431 cell homogenates were separated by PAGE, transferred onto a nitrocellulose membrane, and an infrared reading was obtained.

The target in assay [2] is T1, A431 cells EGFR-TK phosphorylation stimulated by EGF. The assay is described as follows: Inhibition of cellular EGFR-TK phosphorylation stimulated by EGF in A431 cells. The conditions noted are these: for inhibition at 3 µM: A-431, concentration of 3 μM, A431 cells, EGF stimulated, one-time measurement at a single concentration (preliminary selection), NA = No activity, read-out: Inhibition Percent (%).

[3] abbreviates: A431 cells EGFR-TK phosphorylation stimulated by EGF (Table 4).
Setting [4] is: A431 cells EGFR-TK phosphorylation stimulated by EGF (Table 5).

T1 sequence (P00533 25-1210): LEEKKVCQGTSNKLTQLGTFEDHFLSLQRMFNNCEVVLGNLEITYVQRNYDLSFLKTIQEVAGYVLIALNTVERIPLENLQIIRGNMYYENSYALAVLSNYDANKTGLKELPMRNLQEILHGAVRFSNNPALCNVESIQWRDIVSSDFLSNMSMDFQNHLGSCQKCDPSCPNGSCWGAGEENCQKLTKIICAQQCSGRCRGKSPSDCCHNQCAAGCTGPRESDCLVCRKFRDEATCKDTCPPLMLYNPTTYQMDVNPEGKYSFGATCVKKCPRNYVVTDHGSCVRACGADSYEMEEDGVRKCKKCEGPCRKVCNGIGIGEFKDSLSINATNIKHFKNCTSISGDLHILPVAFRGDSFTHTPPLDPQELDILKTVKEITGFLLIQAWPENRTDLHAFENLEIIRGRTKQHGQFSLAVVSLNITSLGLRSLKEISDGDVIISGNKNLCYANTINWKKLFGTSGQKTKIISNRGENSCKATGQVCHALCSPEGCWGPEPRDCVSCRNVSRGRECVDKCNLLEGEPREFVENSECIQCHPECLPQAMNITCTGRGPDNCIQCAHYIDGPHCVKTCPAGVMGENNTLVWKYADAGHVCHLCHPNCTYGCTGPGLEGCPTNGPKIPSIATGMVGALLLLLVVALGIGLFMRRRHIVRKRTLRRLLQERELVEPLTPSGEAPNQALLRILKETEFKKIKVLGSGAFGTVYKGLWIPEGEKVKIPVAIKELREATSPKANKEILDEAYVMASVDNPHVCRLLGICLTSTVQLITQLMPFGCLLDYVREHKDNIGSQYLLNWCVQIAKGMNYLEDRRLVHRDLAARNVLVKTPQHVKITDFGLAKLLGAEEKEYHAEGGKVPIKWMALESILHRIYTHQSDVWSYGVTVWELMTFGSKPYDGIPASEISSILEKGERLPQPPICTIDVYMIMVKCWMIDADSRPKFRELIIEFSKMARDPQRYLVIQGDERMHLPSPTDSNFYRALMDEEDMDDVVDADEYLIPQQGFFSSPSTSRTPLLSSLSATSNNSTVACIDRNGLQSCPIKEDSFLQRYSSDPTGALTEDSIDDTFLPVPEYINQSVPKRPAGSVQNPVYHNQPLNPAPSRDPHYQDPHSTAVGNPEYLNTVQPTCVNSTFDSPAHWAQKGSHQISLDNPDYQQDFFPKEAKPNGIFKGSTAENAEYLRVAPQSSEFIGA

As to `O=C(C=C1CCNCC1)Nc1ccc2ncnc(Nc3ccc(F)c(Cl)c3)c2c1` [Example 32, N-(4-(3-chloro-4-fluorophenylamino)quinazolin-6-yl)-2-(piperidin-4-ylidene)acetamide], the 50% effective concentration (EC50) is 0.6 µM with A431 cells, 0.09 µM in assay [2] (setting [3]) and 0.09 µM in assay [2] (setting [4]). The “Inhibition percent(%)” value in assay [1] is reported as 78%. In addition, in assay [1], the “Activity (irreversible or reversible inhibitor)” value is “Irreversible inhibitor”. The inhibition at 3 µM in assay [2] was determined as 87%.
Take `O=C(C=C1CCNCC1)Nc1ccc2ncnc(Nc3cccc(Br)c3)c2c1` [Example 33, N-(4-(3-bromophenylamino)quinazolin-6-yl)-2-(piperidin-4-ylidene)acetamide]: the figures for the concentration giving a half-maximal response (EC50) (in the assay on A431 cells; in assay [2] (setting [3]); in assay [2] (setting [4])) were 0.1 µM, 0.038 µM and 0.038 µM, respectively. For the same compound, the “Inhibition percent(%)” value in assay [1] was found to be 89%. Moreover, in assay [1], the “Activity (irreversible or reversible inhibitor)” value is “Irreversible inhibitor”. In addition, the inhibition at 3 µM in assay [2] was found to be 94%.
